Source: the supplement of paper PMC10307832

Tests used:
Experiment in all cases: relative viability (nuclei count vs DMSO), 5 days (fraction); higher = more cells survive
[1] = compound: C1=CC(=CC=C1NC(=S)NNC2=C(C=C(C=C2[N+](=O)[O-])C(F)(F)F)[N+](=O)[O-])F [Kobe2602] + CC1(C)CCC(c2ccc(Cl)cc2)=C(CN2CCN(c3ccc(C(=O)NS(=O)(=O)c4ccc(N[C@H](CCN5CCOCC5)CSc5ccccc5)c(S(=O)(=O)C(F)(F)F)c4)cc3)CC2)C1 [Navitoclax] (partner 0.5 µM)
Method in brief: (§1)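 Lung cancer cell lines in 1536-well plates were dosed by pin tool the day after seeding, either with one drug alone or with a fixed anchor-drug dose plus five library-drug doses (not always all listed) in √10 steps. After 5 days, cells were fixed and their nuclei stained in one step (final 0.05% Triton X-100, 1% formaldehyde, 1 ug/ml Hoechst), then counted on 4× images. Relative viability is the nuclei count in treated wells divided by that in vehicle wells. Values are medians of duplicate plates.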

[2] = compound: COc1cc2nccc(Oc3ccc(NC(=O)C4(C(=O)Nc5ccc(F)cc5)CC4)cc3)c2cc1OC [Cabozantinib] + CCNC(=O)c1noc(-c2cc(C(C)C)c(O)cc2O)c1-c1ccc(CN2CCOCC2)cc1 [Luminespib] (partner 0.01 µM)
Method in brief: as §1

[3] = compound: COc1cc2nccc(Oc3ccc(NC(=O)C4(C(=O)Nc5ccc(F)cc5)CC4)cc3)c2cc1OC [Cabozantinib] + CS(=O)(=O)N1CCN(Cc2cc3nc(-c4cccc5[nH]ncc45)nc(N4CCOCC4)c3s2)CC1 [Pictilisib] (partner 1 µM)
Method in brief: as §1

Row | Cell Line | relative viability ([1]; first compound 0.2 µM) | relative viability ([1]; first compound 0.6325 µM) | relative viability ([1]; first compound 2 µM) | relative viability ([1]; first compound 6.325 µM) | relative viability ([1]; first compound 20 µM) | relative viability ([2]; first compound 0.02 µM) | relative viability ([2]; first compound 0.06325 µM) | relative viability ([2]; first compound 0.2 µM) | relative viability ([2]; first compound 0.6325 µM) | relative viability ([2]; first compound 2 µM) | relative viability ([3]; first compound 0.02 µM) | relative viability ([3]; first compound 0.06325 µM) | relative viability ([3]; first compound 0.2 µM) | relative viability ([3]; first compound 0.6325 µM) | relative viability ([3]; first compound 2 µM)
1 | 201T | 1.23 | 1.18 | 1.18 | 1.3 | 1.29 | 1.12 | 1.08 | 1.04 | 1.06 | 1.03 | 0.688 | 0.715 | 0.656 | 0.709 | 0.71
2 | A549 | 1.26 | 1.21 | 1.22 | 1.11 | 1.17 |  |  |  |  |  | 0.572 | 0.57 | 0.502 | 0.514 | 0.379
3 | A-427 | 1 | 0.945 | 0.934 | 0.97 | 0.459 | 1.23 | 1.15 | 1.03 | 0.912 | 0.857 | 0.657 | 0.785 | 0.638 | 0.773 | 0.744
4 | ABC-1 |  |  |  |  |  | 0.458 | 0.494 | 0.83 | 1.11 | 0.758 | 0.604 | 0.707 | 0.681 | 0.701 | 0.819
5 | BEN | 0.0992 | 0.0652 | 0.0611 | 0.0659 | 0.0705 | 0.3 | 0.414 | 0.326 | 0.352 | 0.257 | 0.58 | 0.632 | 0.576 | 0.601 | 0.458
6 | CAL-12T | 1.2 | 1.25 | 1.31 | 1.39 | 1.2 | 0.832 | 0.574 | 0.37 | 0.581 | 1.37 | 0.364 | 0.411 | 0.383 |  | 0.336
7 | COR-L23 | 0.951 | 1.01 | 1.02 | 1.06 | 0.938 | 0.733 | 0.823 | 0.723 | 0.675 | 0.658 | 0.487 | 0.831 | 0.789 | 0.74 | 0.691
8 | COR-L 105 | 0.525 | 0.756 | 0.786 | 0.909 | 0.784 | 0.924 | 0.823 |  | 0.915 | 0.609 | 0.343 | 0.385 |  | 0.43 | 0.37
9 | Calu-6 | 0.818 | 0.875 | 0.866 | 0.826 | 0.744 |  |  |  |  |  | 0.984 | 1.05 | 0.878 | 0.814 | 0.78
10 | ChaGo-K-1 | 1.12 | 1.26 | 1.02 | 1.05 | 0.933 | 0.638 | 0.757 | 0.737 | 0.765 | 0.447 | 0.533 | 0.933 | 0.676 | 0.405 | 0.647
11 | EBC-1 | 0.373 | 0.488 | 0.436 | 0.452 | 0.483 |  |  |  |  |  | 0.29 | 0.193 | 0.169 | 0.166 | 0.107
12 | EKVX | 0.926 | 0.926 | 0.955 | 0.88 | 0.9 | 0.859 | 1.02 | 0.918 | 0.751 | 0.893 | 0.483 | 0.448 | 0.344 | 0.418 | 0.367
13 | EMC-BAC-2 | 1.16 | 1.17 | 1.11 | 1.13 | 1.16 | 1.23 | 1.15 | 1.24 | 1.1 | 1.09 | 0.505 | 0.566 | 0.516 | 0.554 | 0.542
14 | EPLC-272H | 1.07 | 1.17 | 1.21 | 1.45 | 0.045 | 0.418 | 0.282 | 0.14 | 0.476 | 0.256 | 0.192 | 0.262 | 0.323 | 0.356 | 0.279
15 | H3255 | 0.521 | 0.562 | 0.516 | 0.558 | 0.548 | 0.885 | 1.13 |  | 0.905 | 0.893 | 0.473 | 0.572 |  | 0.466 | 0.48
16 | HARA | 1.22 | 1.19 | 1.16 | 1.06 | 1.11 | 0.722 | 0.421 | 0.615 | 0.92 | 0.548 | 0.315 | 0.417 | 0.508 | 0.474 | 0.429
17 | HCC-15 | 0.715 | 0.728 | 0.665 | 0.664 | 0.65 | 0.374 | 0.361 | 0.515 | 0.394 | 0.214 | 0.785 | 0.762 | 0.69 | 0.719 | 0.799
18 | HCC-44 | 0.989 | 0.998 | 0.928 | 0.963 | 1.02 |  | 1.15 | 1.08 | 1 | 1.02 | 0.487 | 0.581 | 0.6 | 0.571 | 0.662
19 | HCC-78 | 0.761 | 0.893 |  | 0.78 | 0.91 |  |  |  |  |  | 0.178 | 0.228 | 0.174 | 0.177 | 0.192
20 | HCC-366 | 1.07 | 0.98 | 0.832 | 1.06 | 1.06 |  |  |  |  |  | 0.0953 | 0.105 | 0.158 | 0.0782 | 0.113
21 | HCC-827 | 0.987 | 1.13 | 1.06 | 1.03 | 0.981 | 0.898 | 1.02 |  | 0.824 | 0.565 | 1.08 | 0.991 |  | 0.907 | 0.816
22 | HOP-62 | 1.01 | 1.03 | 0.986 | 1 | 1.04 | 1.03 | 1 | 0.902 | 0.881 | 0.838 | 0.959 | 0.707 | 1.08 | 0.57 | 0.683

Row | Cell Line | relative viability ([1]; first compound 0.2 µM) | relative viability ([1]; first compound 0.6325 µM) | relative viability ([1]; first compound 2 µM) | relative viability ([1]; first compound 6.325 µM) | relative viability ([1]; first compound 20 µM) | relative viability ([2]; first compound 0.02 µM) | relative viability ([2]; first compound 0.06325 µM) | relative viability ([2]; first compound 0.2 µM) | relative viability ([2]; first compound 0.6325 µM) | relative viability ([2]; first compound 2 µM) | relative viability ([3]; first compound 0.02 µM) | relative viability ([3]; first compound 0.06325 µM) | relative viability ([3]; first compound 0.2 µM) | relative viability ([3]; first compound 0.6325 µM) | relative viability ([3]; first compound 2 µM)
23 | IA-LM |  | 0.741 | 0.737 | 0.639 | 0.669 |  |  |  |  |  | 0.471 | 0.381 | 0.356 | 0.39 | 0.412
24 | LC-2-ad | 0.378 | 0.374 | 0.453 | 0.371 | 0.404 |  | 1.1 | 1.03 | 0.914 | 0.956 | 0.31 | 0.402 | 0.279 | 0.319 | 0.177
25 | LCLC-97TM1 | 0.253 | 0.462 | 0.531 | 0.282 | 0.317 | 0.784 | 0.817 | 0.875 | 0.805 | 0.638 |  | 0.2 | 0.152 | 0.296 | 0.32
26 | LCLC-103H |  |  |  |  |  | 1.07 | 0.962 | 1.03 | 0.983 | 0.905 | 0.524 | 0.622 | 0.58 | 0.606 | 0.528
27 | LK-2 | 0.899 | 1.06 | 0.815 | 0.825 | 0.891 |  | 0.176 |  | 0.198 | 0.196 |  | 0.632 | 0.565 | 0.625 | 0.588
28 | LOU-NH91 | 0.702 | 0.816 | 0.644 | 0.697 | 0.68 | 0.363 | 0.358 |  | 0.385 | 0.271 | 0.494 | 0.541 | 0.476 | 0.485 | 0.513
29 | LU99A | 0.817 | 0.87 | 0.811 | 0.732 | 0.781 | 0.283 | 0.268 | 0.238 | 0.196 | 0.261 | 0.248 | 0.335 | 0.299 | 0.33 | 0.346
30 | LXF-289 | 0.95 | 0.959 | 0.873 | 0.941 | 0.923 | 0.683 | 0.764 | 0.689 | 0.715 | 0.662 | 0.74 | 0.727 | 0.783 | 0.69 | 0.693
31 | NCI-H23 | 0.744 | 0.741 | 0.97 | 0.679 | 0.993 |  | 0.218 | 0.199 | 0.229 | 0.205 |  | 0.476 | 0.402 | 0.358 | 0.427
32 | NCI-H322M | 1.28 | 1.31 | 1.25 | 1.26 | 0.631 | 0.922 | 1.14 | 0.817 | 0.969 | 0.941 | 0.443 | 0.548 |  | 0.572 | 0.526
33 | NCI-H358 |  |  |  |  |  |  | 0.549 |  | 0.322 | 0.136 | 0.318 | 0.35 | 0.386 | 0.387 | 0.373
34 | NCI-H441 | 0.602 | 0.807 | 0.601 | 0.575 | 0.679 | 0.326 | 0.404 | 0.306 | 0.324 | 0.375 | 0.459 | 0.512 | 0.49 | 0.581 | 0.404
35 | NCI-H460 | 1.12 | 1.16 | 1.19 | 1.1 | 1.06 | 0.0282 | 0.0334 | 0.0334 | 0.0351 | 0.0448 | 0.232 | 0.44 | 0.379 | 0.23 | 0.439
36 | NCI-H522 |  |  |  |  |  | 1.15 | 1.41 | 1.56 | 1.07 | 1.23 |  |  |  |  | 
37 | NCI-H650 |  |  |  |  |  |  | 0.784 | 0.952 | 0.751 | 0.724 | 0.765 | 1.02 | 1.02 | 0.774 | 0.868
38 | NCI-H661 |  |  |  |  |  | 0.904 | 0.929 | 1.01 | 0.957 | 0.938 | 0.301 | 0.476 | 0.391 | 0.394 | 0.331
39 | NCI-H1299 | 1.07 | 1.04 | 1.06 | 1.08 | 1.02 |  |  |  |  |  | 0.961 | 0.924 | 0.953 | 0.876 | 0.733
40 | NCI-H1563 |  |  |  |  |  | 0.507 | 0.52 | 0.508 | 0.527 | 0.531 | 0.572 | 0.607 | 0.637 | 0.621 | 0.66
41 | NCI-H1623 |  |  |  |  |  | 0.53 | 0.497 | 0.47 | 0.446 | 0.492 |  |  |  |  | 
42 | NCI-H1703 | 1.44 | 1.24 | 1.12 | 0.893 | 1.06 |  |  |  |  |  | 0.214 | 0.229 | 0.249 | 0.226 | 0.18
43 | NCI-H2342 |  |  |  |  |  | 0.673 | 0.837 | 0.864 | 0.604 | 0.591 |  |  |  |  | 
44 | SW 900 |  |  |  |  |  | 0.17 | 0.19 | 0.2 | 0.177 | 0.166 |  |  |  |  | 
